Source: patent publication US9321760B2 (Merck Patent GmbH, priority 2011, dated 2016)

Target: P70S6K (T412E mutant) (Homo sapiens (Human), UniProt P23443, T412E)
Experiment: P70S6K enzyme assay
Format: biochemical
Conditions: 3 nM P70S6K T412E mutant, 24 μM ATP, 1 μM FITC-AHA-AKRRRLSSLRA-OH substrate peptide, 90 min at 25° C.
Experimental: The IC50 values reported for the compounds in the Experimental section were derived from the following protocol for the p70S6K enzyme assay.
P70S6K inhibitor compounds were diluted and plated in 96 well plates. A reaction mixture including the following components was then added to the compound plate to initiate the enzyme reaction; P70S6K (3 nM, T412E mutant, Millipore) was mixed with 24 μM ATP in an assay buffer containing 100 mM Hepes (pH 7.5), 5 mM MgCl2, 1 mM DTT, 0.015% Brij and 1 μM of the substrate peptide FITC-AHA-AKRRRLSSLRA-OH (derived from the S6 ribosomal protein sequence, FITC=fluorescein isothiocyanate, AHA=6-aminohexanoic acid). The reaction was incubated for 90 min at 25° C., before the addition of 10 mM EDTA to stop the reaction. The proportion of substrate and product (phosphorylated) peptide was analysed on a Caliper Life Sciences Lab Chip 3000, using a pressure of −1.4 psi, and upstream and downstream voltages of −3000 and −700 respectively. Product peaks were resolved before substrate peaks on the resulting chromatograms.

P70S6K (T412E mutant), sequence (P23443 whole entry T412E): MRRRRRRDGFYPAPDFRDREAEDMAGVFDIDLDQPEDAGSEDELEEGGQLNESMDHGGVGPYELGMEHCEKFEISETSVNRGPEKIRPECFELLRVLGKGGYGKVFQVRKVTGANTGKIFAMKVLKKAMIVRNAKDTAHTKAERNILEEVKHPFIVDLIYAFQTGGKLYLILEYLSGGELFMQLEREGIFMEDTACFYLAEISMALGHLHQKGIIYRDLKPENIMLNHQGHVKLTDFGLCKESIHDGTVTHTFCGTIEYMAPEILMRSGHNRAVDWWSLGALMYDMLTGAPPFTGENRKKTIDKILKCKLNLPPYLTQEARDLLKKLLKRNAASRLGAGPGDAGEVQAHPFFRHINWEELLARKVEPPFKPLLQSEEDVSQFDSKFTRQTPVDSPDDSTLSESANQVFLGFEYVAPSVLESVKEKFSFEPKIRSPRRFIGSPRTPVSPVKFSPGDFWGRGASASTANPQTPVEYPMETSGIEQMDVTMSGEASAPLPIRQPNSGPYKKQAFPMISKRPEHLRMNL

SMILES | IC50
NCC(c1ccc(C(F)(F)F)cc1F)N1CCN(c2ncnc(N)c2-c2ccc(F)cc2)CC1 (stereo not drawn) [Example 170, 6-{4-[2-Amino-1-(2-fluoro-4-trifluoromethyl-phenyl)-ethyl]-piperazin-1-yl}-5-(4-fluoro-phenyl)-pyrimidin-4-ylamine] | 12 nM
Cn1cc(-c2c(N)ncnc2N2CCN([C@@H](CN)c3ccc(C(F)(F)F)cc3)CC2)cn1 [Example 42, 6-{4-[(R)-2-Amino-1-(4-trifluoromethyl-phenyl)-ethyl]-piperazin-1-yl}-5-(1-methyl-1H-pyrazol-4-yl)-pyrimidin-4-ylamine] | 6 nM
Nc1ncnc(N2CCN(C(CN3CCC3)c3ccc(F)c(OC(F)(F)F)c3)CC2)c1-c1cn[nH]c1 (stereo not drawn) [Example 114, 6-{4-[2-Azetidin-1-yl-1-(4-fluoro-3-trifluoromethoxy-phenyl)-ethyl]-piperazin-1-yl}-5-(1H-pyrazol-4-yl)-pyrimidin-4-ylamine] | 3300 nM
CN(C)CC(c1ccc(C(F)(F)F)cc1)N1CCN(c2ncnc(N)c2-c2ccc(F)cc2)CC1 (stereo not drawn) [Example 15, 6-(4-(2-(dimethylamino)-1-(4-(trifluoromethyl)phenyl)ethyl)piperazin-1-yl)-5-(4-fluorophenyl)pyrimidin-4-amine] | 4.9 nM
COC(=O)c1ccc(C(CN2CCC2)N2CCN(c3ncnc(N)c3-c3cn[nH]c3)CC2)cc1 (single isomer, unassigned) [Example 86, 4-(1-{4-[6-Amino-5-(1H-pyrazol-4-yl)-pyrimidin-4-yl]-piperazin-1-yl}-2-azetidin-1-yl-ethyl)-benzoic acid methyl ester] | 6400 nM
Cn1ccnc1C(c1ccccc1)N1CCN(c2ncnc(N)c2-c2ccc(F)cc2)CC1 (stereo not drawn) [Example 30, 5-(4-Fluoro-phenyl)-6-{4-[(1-methyl-1H-imidazol-2-yl)-phenyl-methyl]-piperazin-1-yl}-pyrimidin-4-ylamine] | 34.5 nM
Nc1ncnc(N2CCN(C(CN3CCC3)c3ccc(Cl)c(Cl)c3)CC2)c1-c1ccc(N2CCNCC2)nc1 (stereo not drawn) [Example 133, 6-{4-[2-Azetidin-1-yl-1-(3,4-dichloro-phenyl)-ethyl]-piperazin-1-yl}-5-(6-piperazin-1-yl-pyridin-3-yl)-pyrimidin-4-ylamine] | > 100000 nM
NCC(c1ccc(C(F)(F)F)cc1)C1CCN(c2ncnc(N)c2-c2cn[nH]c2)CC1 (stereo not drawn) [Example 55, 6-(4-(2-amino-1-(4-(trifluoromethyl)phenyl)ethyl)piperidin-1-yl)-5-(1H-pyrazol-4-yl)pyrimidin-4-amine] | 5.2 nM
Nc1ncnc(N2CCN(C(CN3CCC3)c3ccc4c(c3)CCCC4)CC2)c1-c1cn[nH]c1 (stereo not drawn) [Example 122, 6-{4-[2-Azetidin-1-yl-1-(5,6,7,8-tetrahydro-naphthalen-2-yl)-ethyl]-piperazin-1-yl}-5-(1H-pyrazol-4-yl)-pyrimidin-4-ylamine] | 950 nM
C[C@H](c1ccccc1)[C@H](CN)N1CCN(c2ncnc(N)c2-c2ccc(F)cc2)CC1 [Example 171, 6-[4-((1R,2R)-1-Aminomethyl-2-phenyl-propyl)-piperazin-1-yl]-5-(4-fluoro-phenyl)-pyrimidin-4-ylamine] | 73 nM
Nc1ncnc(N2CCN(C(CN3CCC3)c3ccc(C(F)(F)F)cc3F)CC2)c1-c1cn[nH]c1 (stereo not drawn) [Example 120, 6-{4-[2-Azetidin-1-yl-1-(2-fluoro-4-trifluoromethyl-phenyl)-ethyl]-piperazin-1-yl}-5-(1H-pyrazol-4-yl)-pyrimidin-4-ylamine] | 1100 nM
CC(c1ccc(Cl)cc1O)N1CCN(c2ncnc(N)c2-c2ccc(F)cc2)CC1 (stereo not drawn) [Example 61, 2-(1-(4-(6-amino-5-(4-fluorophenyl)pyrimidin-4-yl)piperazin-1-yl)ethyl)-5-chlorophenol] | 33 nM
Cn1cc(-c2c(N)ncnc2N2CCN([C@H](CN)c3ccc(C(F)(F)F)cc3)CC2)cn1 [Example 41, 6-{4-[(S)-2-Amino-1-(4-trifluoromethyl-phenyl)-ethyl]-piperazin-1-yl}-5-(1-methyl-1H-pyrazol-4-yl)-pyrimidin-4-ylamine] | 14 nM
Nc1ncnc(N2CCN(C(CN3CCCC3)c3ccc(F)cc3)CC2)c1-c1ccc(F)cc1 (stereo not drawn) [Example 75, 5-(4-Fluorophenyl)-6{4-[1-(4-fluorophenyl)-2-pyrrolidin-1-yl-ethyl]-piperazin-1-yl}-pyrimidin-4-ylamine] | 15 nM
Cn1ccc(-c2c(N)ncnc2N2CCN(C(CNC(C)(C)C(C)(C)O)c3ccc(C(F)(F)F)cc3)CC2)n1 (stereo not drawn) [Example 44, 3-[2-{4-[6-Amino-5-(1-methyl-1H-pyrazol-3-yl)-pyrimidin-4-yl]-piperazin-1-yl}-2-(4-trifluoromethyl-phenyl)-ethylamino]-2,3-dimethyl-butan-2-ol] | 150 nM
Nc1ncnc(N2CCC(C(c3ccc(F)cc3)N3CCC(F)(F)C3)CC2)c1-c1ccc(F)cc1 (stereo not drawn) [Example 149, 5-(4-fluoropheny)-6-(4-((4-fluorophenyl)(3-difluoropyrrolidin-1-yl)methyl)piperidin-1-yl)pyrimidin-4-amine] | 460 nM
NCC(c1ccccc1)N1CCN(c2ncnc(N)c2-c2ccc(F)cc2)CC1 (stereo not drawn) [Example 6, 6-[4-(2-Amino-1-phenyl-ethyl)-piperazin-1-yl]-5-(4-fluoro-phenyl)-pyrimidin-4-ylamine] | 6.3 nM
NCC(c1ccc(C(F)(F)F)cc1)C1CCN(c2ncnc(N)c2-c2cnoc2)CC1 (stereo not drawn) [Example 59, 6-(4-(2-amino-1-(4-(trifluoromethyl)phenyl)ethyl)piperidin-1-yl)-5-(isoxazol-4-yl)pyrimidin-4-amine] | 140 nM
Nc1ncnc(N2CCC(Cc3ccc(C(F)(F)F)cc3)CC2)c1Br [Example 47, 5-Bromo-6{4-(4-trifluoromethylbenzyl)-piperidin-1-yl}pyrimidin-4-amine] | 960 nM
NC[C@H](c1ccc(C(F)(F)F)cc1)C1CCN(c2ncnc(N)c2-c2ccc(F)cc2)CC1 [Example 53, 6-{4-[(S)-2-Amino-1-(4-trifluoromethyl-phenyl)-ethyl]-piperidin-1-yl}-5-(4-fluoro-phenyl)-pyrimidin-4-ylamine] | 3.2 nM
Nc1cc(N2CCN(C(CN3CCCC3)c3ccc(F)cc3)CC2)ncn1 (stereo not drawn) [Example 78, 6-{4-[1-(4-fluorophenyl)-2-pyrrolidin-1-yl-ethyl]-piperazin-1-yl}-pyrimidin-4-ylamine] | > 1000 nM
Nc1ncnc(N2CCN(C(CN3CCC3)c3cccc(Cl)c3Cl)CC2)c1-c1cn[nH]c1 (stereo not drawn) [Example 126, 6-{4-[2-Azetidin-1-yl-1-(2,3-dichloro-phenyl)-ethyl]-piperazin-1-yl}-5-(1H-pyrazol-4-yl)-pyrimidin-4-ylamine] | 390 nM

Further lines, results first:

IC50 | SMILES
60 nM | CS(=O)(=O)c1ccc(C(CN)N2CCN(c3ncnc(N)c3-c3cn[nH]c3)CC2)cc1 (stereo not drawn) [Example 185, 6-(4-(2-amino-1-(4-(methylsulfonyl)phenyl)ethyl)piperazin-1-yl)-5-(1H-pyrazol-4-yl)pyrimidin-4-amine]
69 nM | CCc1c(N)ncnc1N1CCN(C(CN)c2ccc(Cl)cc2)CC1 (stereo not drawn) [Example 178, 6-{4-[2-Amino-1-(4-chloro-phenyl)-ethyl]-piperazin-1-yl}-5-ethyl-pyrimidin-4-ylamine]
290 nM | Nc1ncnc(N2CC[C@@](N)(CNC(=O)c3ccc(F)cc3F)C2)c1-c1ccc(F)cc1 [Example 248, N—{(R)-3-Amino-1-[6-amino-5-(4-fluoro-phenyl)-pyrimidin-4-yl]-pyrrolidin-3-ylmethyl}-2,4-difluoro-benzamide]
2800 nM | Nc1ncnc(N2CCC(N)(C(=O)N[C@@H](CCO)c3ccccc3)CC2)c1Cl [Example 228, 4-Amino-1-(6-amino-5-chloro-pyrimidin-4-yl)-piperidine-4-carboxylic acid ((S)-3-hydroxy-1-phenyl-propyl)-amide]
98 nM | N#Cc1c(N)ncnc1N1CCC(N)(C(=O)N[C@@H](CCO)c2ccc(Cl)cc2)CC1 [Example 242, 4-Amino-1-(6-amino-5-cyano-pyrimidin-4-yl)-piperidine-4-carboxylic acid [(S)-1-(4-chloro-phenyl)-3-hydroxy-propyl]-amide]
450 nM | CCc1c(N)ncnc1N1CCC(N)(C(=O)N[C@@H](CCO)c2ccc(Cl)cc2)CC1 [Example 214, 4-Amino-1-(6-amino-5-ethyl-pyrimidin-4-yl)-piperidine-4-carboxylic acid [(S)-1-(4-chloro-phenyl)-3-hydroxy-propyl]-amide]
23000 nM | Cc1ccc([C@H](CCO)NC(=O)C2(N)CCN(c3ncnc(N)c3C(N)=O)CC2)cc1 [Example 232, 4-Amino-6-[4-amino-4-((S)-3-hydroxy-1-p-tolyl-propylcarbamoyl)-piperidin-1-yl]-pyrimidine-5-carboxylic acid amide]
13 nM | CCc1c(N)ncnc1N1CCN([C@H](CN)c2ccc(Cl)cc2)CC1 [Example 179, 6-{4-[(S)-2-Amino-1-(4-chloro-phenyl)-ethyl]-piperazin-1-yl}-5-ethyl-pyrimidin-4-ylamine]
3200 nM | N#Cc1c(N)ncnc1N1CCC(N)(C(=O)N[C@H](c2ccc(Cl)cc2)C(F)(F)F)CC1 [Example 220]
220 nM | COc1ccc(C(C#N)N2CCN(c3ncnc(N)c3-c3ccc(F)cc3)CC2)cn1 (stereo not drawn) [Example 182, 2-(4-(6-amino-5-(4-fluorophenyl)pyrimidin-4-yl)piperazin-1-yl)-2-(6-methoxypyridin-3-yl)acetonitrile]
5.9 nM | Nc1ncnc(N2CC[C@](N)(CNC(=O)c3ccc(F)cc3F)C2)c1-c1ccc(F)cc1 (single isomer, unassigned) [Example 249]
